# From patent US8846698B2, “Pyrrolo[2,3-d]pyrimidine tropomysin-related kinase inhibitors” (Pfizer Limited, priority 2011, dated 2014)
# Biological target: TRKA (Homo sapiens (Human), UniProt P04629)
# Test: Isolated TRK enzyme assay (HTRF KinEASE-TK), TRKA
# Assay type: biochemical
# Details: read-out: Trka enzyme (IC50)
# Chain of TRKA (P04629 441-796): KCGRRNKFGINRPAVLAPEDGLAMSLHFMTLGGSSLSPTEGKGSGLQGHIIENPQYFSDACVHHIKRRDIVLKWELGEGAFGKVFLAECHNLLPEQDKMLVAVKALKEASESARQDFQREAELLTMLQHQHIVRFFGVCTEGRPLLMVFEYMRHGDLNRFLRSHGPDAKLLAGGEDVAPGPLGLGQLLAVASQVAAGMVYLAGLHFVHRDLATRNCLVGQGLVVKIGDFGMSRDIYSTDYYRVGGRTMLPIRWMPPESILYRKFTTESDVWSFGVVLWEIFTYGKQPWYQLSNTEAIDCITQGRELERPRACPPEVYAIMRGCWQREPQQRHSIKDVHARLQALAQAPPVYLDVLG
row,Compound,IC50 [nM]
1,"CSc1ncc(CC(=O)Nc2cncc(C(=O)c3cn(C(C)C)c4ncncc34)c2)cn1 [Example 164, N-{5-[(7-isopropyl-7H-pyrrolo[2,3-d]pyrimidin-5-yl)carbonyl]pyridin-3-yl}-2-[2-(methylthio)pyrimidin-5-yl]acetamide]",133
2,"Cc1ccncc1C(=O)Nc1cncc(C(=O)c2cn(C(C)C)c3ncncc23)c1 [Example 499, N-[5-(7-Isopropyl-7H-pyrrolo[2,3-d]pyrimidine-5-carbonyl)-pyridin-3-yl]-4-methyl-nicotinamide]",9800
3,"CC(C)n1cc(C(=O)c2cncc(NC(=O)c3cn(C)c4cnccc34)c2)c2cncnc21 [Example 457, 1-Methyl-1H-pyrrolo[2,3-c]pyridine-3-carboxylic acid [5-(7-isopropyl-7H-pyrrolo[2,3-d]pyrimidine-5-carbonyl)-pyridin-3-yl]-amide]",674
4,"O=C(Cc1cccc(OC(F)(F)F)c1)Nc1cncc(C(=O)c2cn(C(CO)CO)c3ncncc23)c1 [Example 279, N-[5-({7-[2-hydroxy-1-(hydroxymethyl)ethyl]-7H-pyrrolo[2,3-d]pyrimidin-5-yl}carbonyl)pyridin-3-yl]-2-[3-(trifluoromethoxy)phenyl]acetamide]",439
5,"O=C(Cc1ccc(C(F)(F)F)cc1)Nc1cncc(C(=O)c2cn(C3(CO)CC3)c3ncncc23)c1 [Example 524, N-{5-[7-(1-Hydroxymethyl-cyclopropyl)-7H-pyrrolo[2,3-d]pyrimidine-5-carbonyl]-pyridin-3-yl}-2-(4-trifluoromethyl-phenyl)-acetamide]",4.53
6,"Cc1nccn1CC(=O)Nc1cncc(C(=O)c2cn(C(C)C)c3ncncc23)c1 [Example 359, N-[5-(7-Isopropyl-7H-pyrrolo[2,3-d]pyrimidine-5-carbonyl)-pyridin-3-yl]-2-(2-methyl-imidazol-1-yl)-acetamide]",9800
7,"Cc1nc(Cl)nn1CC(=O)Nc1cncc(C(=O)c2cn(C(C)C)c3ncncc23)c1 [Example 369, 2-(3-Chloro-5-methyl-1,2,4-triazol-1-yl)-N-[5-(7-isopropyl-7H-pyrrolo[2,3-d]pyrimidine-5-carbonyl)-pyridin-3-yl]-acetamide]",3000
8,"O=C(Nc1cncc(C(=O)c2cn(C(CO)CO)c3ncncc23)c1)c1cccc(C(F)(F)F)c1 [Example 269, N-(5-(7-(1,3-dihydroxypropan-2-yl)-7H-pyrrolo[2,3-d]pyrimidine-5-carbonyl)pyridin-3-yl)-3-(trifluoromethyl)benzamide]",557
9,"CC(C)n1cc(C(=O)c2cncc(NC(=O)c3nccc4[nH]ccc34)c2)c2cncnc21 [Example 444, 1H-Pyrrolo[3,2-c]pyridine-4-carboxylic acid [5-(7-isopropyl-7H-pyrrolo[2,3-d]pyrimidine-5-carbonyl)-pyridin-3-yl]amide]",496
10,"Cc1ccc(CC(=O)Nc2cncc(C(=O)c3cn(C)c4ncncc34)c2)c(C)c1 [Example 188, 2-(2,4-dimethylphenyl)-N-{5-[(7-methyl-7H-pyrrolo[2,3-d]pyrimidin-5-yl)carbonyl]pyridin-3-yl}acetamide]",277
11,"CC(C)n1cc(C(=O)c2cncc(NC(=O)c3cc4ccccc4[nH]3)c2)c2cncnc21 [Example 383, 1H-Indole-2-carboxylic acid [5-(7-isopropyl-7H-pyrrolo[2,3-d]pyrimidine-5-carbonyl)-pyridin-3-yl]-amide]",130
12,"CC(C)n1cc(C(=O)c2cncc(NC(=O)c3ccc(C#N)nc3)c2)c2cncnc21 [Example 473, 6-Cyano-N-[5-(7-isopropyl-7H-pyrrolo[2,3-d]pyrimidine-5-carbonyl)-pyridin-3-yl]-nicotinamide]",7280
13,"CC(C)n1cc(C(=O)c2cncc(NC(=O)Cc3ccc(C(F)(F)F)cc3)c2)c2cncnc21 [Example 67, N-{5-[(7-isopropyl-7H-pyrrolo[2,3-d]pyrimidin-5-yl)carbonyl]pyridin-3-yl}-2-[4-(trifluoromethyl)phenyl]acetamide]",4.15
14,"CC(C)n1cc(C(=O)c2cncc(NC(=O)c3ccc4nnnn4c3)c2)c2cncnc21 [Example 502, Tetrazolo[1,5-a]pyridine-6-carboxylic acid [5-(7-isopropyl-7H-pyrrolo[2,3-d]pyrimidine-5-carbonyl)-pyridin-3-yl]-amide]",6280
15,"CC(C)n1cc(C(=O)c2cncc(NC(=O)Cc3c[nH]c4c(Cl)cccc34)c2)c2cncnc21 [Example 148, 2-(7-chloro-1H-indol-3-yl)-N-{5-[(7-isopropyl-7H-pyrrolo[2,3-d]pyrimidin-5-yl)carbonyl]pyridin-3-yl}acetamide]",93.4
16,"Cn1cc(C(=O)c2cncc(NC(=O)CCc3ccc(F)cc3)c2)c2cncnc21 [Example 328, 3-(4-fluorophenyl)-N-{5-[(7-methyl-7H-pyrrolo[2,3-d]pyrimidin-5-yl)carbonyl]pyridin-3-yl}propanamide]",3100
17,"CC(C)n1cc(C(=O)c2cncc(NC(=O)c3n[nH]c4c3CCC4)c2)c2cncnc21 [Example 419, 1,4,5,6-Tetrahydro-cyclopentapyrazole-3-carboxylic acid [5-(7-isopropyl-7H-pyrrolo[2,3-d]pyrimidine-5-carbonyl)-pyridin-3-yl]-amide]",15.1
18,"Cc1sc2nc(CC(=O)Nc3cncc(C(=O)c4cn(C(C)C)c5ncncc45)c3)cn2c1C [Example 362, 2-(2,3-Dimethyl-imidazo[2,1-b]thiazol-6-yl)-N-[5-(7-isopropyl-7H-pyrrolo[2,3-d]pyrimidine-5-carbonyl)-pyridin-3-yl]-acetamide]",1910

# Continued by falling IC50, values first:
row,IC50 [nM],Compound
1,3100,"Cn1cc(C(=O)c2cncc(NC(=O)CCc3ccc(Cl)cc3)c2)c2cncnc21 [Example 320, 3-(4-chlorophenyl)-N-{5-[(7-methyl-7H-pyrrolo[2,3-d]pyrimidin-5-yl)carbonyl]pyridin-3-yl}propanamide]"
2,3080,"Cn1cc(C(=O)c2cncc(NC(=O)Cc3ccccc3)c2)c2cncnc21 [Example 179, N-{5-[(7-methyl-7H-pyrrolo[2,3-d]pyrimidin-5-yl)carbonyl]pyridin-3-yl}-2-phenylacetamide]"
3,2780,"Cc1nonc1C(=O)Nc1cncc(C(=O)c2cn(C(C)C)c3ncncc23)c1 [Example 381, 4-Methyl-furazan-3-carboxylic acid [5-(7-isopropyl-7H-pyrrolo[2,3-d]pyrimidine-5-carbonyl)-pyridin-3-yl]-amide]"
4,2640,"CNC(=O)Cn1cc(C(=O)c2cncc(NC(=O)Cc3ccc(Cl)cc3)c2)c2cncnc21 [Example 305, 2-(4-chlorophenyl)-N-[5-({7-[2-(methylamino)-2-oxoethyl]-7H-pyrrolo[2,3-d]pyrimidin-5-yl}carbonyl)pyridin-3-yl]acetamide]"
5,496,"CC(C)n1cc(C(=O)c2cncc(NC(=O)Cc3cc(-c4ccccc4)c[nH]3)c2)c2cncnc21 [Example 137, N-{5-[(7-isopropyl-7H-pyrrolo[2,3-d]pyrimidin-5-yl)carbonyl]pyridin-3-yl}-2-(4-phenyl-1H-pyrrol-2-yl)acetamide]"
6,430,"Cn1cc(C(=O)c2cncc(NC(=O)Cc3cccc(Cl)c3)c2)c2cncnc21 [Example 197, 2-(3-chlorophenyl)-N-{5-[(7-methyl-7H-pyrrolo[2,3-d]pyrimidin-5-yl)carbonyl]yridine-3-yl}acetamide]"
7,135,"CC(C)n1cc(C(=O)c2cncc(NC(=O)c3cc4cc[nH]c4cn3)c2)c2cncnc21 [Example 392, 1H-Pyrrolo[2,3-c]pyridine-5-carboxylic acid [5-(7-isopropyl-7H-pyrrolo[2,3-d]pyrimidine-5-carbonyl)-pyridin-3-yl]-amide]"
8,123,"CC(C)c1cn(CC(=O)Nc2cncc(C(=O)c3cn([C@H](C)CO)c4ncncc34)c2)nn1 [Example 206, N-[5-({7-[(1R)-2-hydroxy-1-methylethyl]-7H-pyrrolo[2,3-d]pyrimidin-5-yl}carbonyl)pyridin-3-yl]-2-(4-isopropyl-1H-1,2,3-triazol-1-yl)acetamide]"
9,65.1,"Cc1[nH]c2c(F)cccc2c1CC(=O)Nc1cncc(C(=O)c2cn(C(C)C)c3ncncc23)c1 [Example 109, 2-(7-fluoro-2-methyl-1H-indol-3-yl)-N-{5-[(7-isopropyl-7H-pyrrolo[2,3-d]pyrimidin-5-yl)carbonyl]pyridin-3-yl}acetamide]"
10,59,"CC(CO)n1cc(C(=O)c2cncc(NC(=O)Cc3ccc(C#N)cc3)c2)c2cnc(N)nc21 (single isomer, unassigned) [Example 212, N-(5-{[2-amino-7-(2-hydroxy-1-methylethyl)-7H-pyrrolo[2,3-d]pyrimidin-5-yl]carbonyl}pyridin-3-yl)-2-(4-cyanophenyl)acetamide]"
11,20,"COc1cncc(C(=O)Nc2cncc(C(=O)c3cn(C(C)C)c4ncncc34)c2)c1 [Example 485, N-[5-(7-Isopropyl-7H-pyrrolo[2,3-d]pyrimidine-5-carbonyl)-pyridin-3-yl]-5-methoxy-nicotinamide]"
12,14.8,"CC(C)n1cc(C(=O)c2cncc(NC(=O)Cn3cc(C(F)(F)F)nn3)c2)c2cncnc21 [Example 106, N-{5-[(7-isopropyl-7H-pyrrolo[2,3-d]pyrimidin-5-yl)carbonyl]pyridin-3-yl}-2-[4-(trifluoromethyl)-1H-1,2,3-triazol-1-yl]acetamide]"
13,11.4,"O=C(Cc1ccc(Cl)cn1)Nc1cncc(C(=O)c2cn(C3(CO)CC3)c3ncncc23)c1 [Example 523, 2-(5-Chloro-pyridin-2-yl)-N-{5-[7-(1-hydroxymethyl-cyclopropyl)-7H-pyrrolo[2,3-d]pyrimidine-5-carbonyl]-pyridin-3-yl}-acetamide]"
14,4.57,"CC(C)(C)n1cc(C(=O)c2cncc(NC(=O)Cc3ccc(C#N)cc3)c2)c2cnc(N)nc21 [Example 520, N-[5-(2-Amino-7-tert-butyl-7H-pyrrolo[2,3-d]pyrimidine-5-carbonyl)-pyridin-3-yl]-2-(4-cyano-phenyl)-acetamide]"
15,4.24,"C[C@@H](CO)n1cc(C(=O)c2cncc(NC(=O)Cc3cccc(C(F)(F)F)c3)c2)c2cncnc21 [Example 204, N-[5-({7-[(1S)-2-hydroxy-1-methylethyl]-7H-pyrrolo[2,3-d]pyrimidin-5-yl}carbonyl)pyridin-3-yl]-2-[3-(trifluoromethyl)phenyl]acetamide]"
